From US9688653B2, “Ethoxyphenyl thienyl compounds and methods for the treatment of bacterial infections” (Duke University, priority 2013, dated 2017)
Where “and” joins values, the source holds several entries; their conditions need not be identical. Equal entries are not always repeated. Where two headings read alike, the source gives them in different places.

Key:
[1] = Solubility in PBS and in assay media; format: physicochemical
Description: Solubility was measured in phosphate buffered saline (PBS) at room temperature (23° C.). PBS by definition is 137 mM NaCl, 2.7 mM KCl, 10 mM sodium phosphate dibasic, 2 mM potassium phosphate monobasic and a pH of 7.4 (34). […] Solubility was also assessed in primary assay media (Luria-Bertani Broth). […] The solubility in PBS buffer is good, and only slightly less than in assay media, and, in any case, the solubility for the probe is well above its activity in the K1 and T7 assays.

[2] = test system: E. coli strains 536 (K15 serotype), CFT073 (K2 serotype), DS17 (K5 serotype), UTI89 (K1 serotype); assay: Visualization of isolated capsule by Alcian blue staining; format: cell-based, Escherichia coli; settings: strains 536, CFT073, DS17, UTI89; DU011 200 μM
Description: Visualization of capsule using Alcian blue staining. Overnight cultures of clinical E. coli strains were diluted 1:100 in the presence of 1% DMSO or 100 μM DU011. Cultures were grown for ˜6 hrs (OD600=1.2) at 37° C. Samples were centrifuged at 13,200 RPM for 5 min. The medium was removed and the cells were resuspended in 500 μL of Tris-Acetate (pH 5) and shaken for 1 hr at 37° C. Samples were re-centrifuged, and the supernatant was concentrated ˜100 fold in Amicon 3K microconcentrators.
A major consideration was whether the inhibitors of K1 encapsulation were also able to inhibit the production of other important E. coli Group 2 capsule types. […] Capsular material was isolated from strains 536 (K15 serotype), CFT073 (K2 serotype) and DS17 (K5 serotype), and UTI89 (K1 serotype) in the presence and absence of capsule inhibitors. Capsule was isolated from the same amount of bacteria after growth in vehicle or with inhibitor DU011 (200 μM). Isolated material was separated on a polyacrylamide gel and stained with the cationic dye alcian blue.

UPEC = assay: Emergence of spontaneous resistance on exposure to probe; format: cell-based, Escherichia coli; settings: range of concentrations
From the text: The probe described herein is entirely novel with the only precedent being the structurally dissimilar molecule 2-(4-phenylphenyl)benzo[g]quinoline-4-carboxylic acid that we previously described in proof-of-concept studies (33). The probe described herein is uniquely poised for development as an infection-specific prevention and treatment therapeutic that enhances natural immune clearance of an infection, namely UTI. […] However, the probe has no effect on in vitro growth and viability of UPEC in the absence of immune factors. […] Furthermore, this probe would be expected to act upon traditional antibiotic resistant strains of E. coli.

in vitro [3] = format: cell-based; settings: human
[4] = Plasma protein binding, human; format: in vitro ADME
Plasma stability, human = format: in vitro ADME; settings: 1:1 Plasma:PBS, 37° C.
E. coli K1 strain UTI89 = assay: microbe, parasite or virus in culture; settings: for Selectivity index (CC50/IC50): versus bladder 5637 cells
In short: (§1)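 UTI89 cultures in LB with 0.5% DMSO were preincubated 2 hr at 37 °C with compounds (100 μM in screen), then with K1F phage a further 2 hr. Viability was read as Alamar Blue fluorescence. Phage-lysis inhibition is relative to plate bacterial controls; IC50 by 4-parameter fit locked at 0 and 100.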

in vitro [5] = settings: human (5637 cells, CC50), Escherichia coli (UTI89, IC50), Fold Selective (CC50/IC50)
In short: as §1

## CCOc1ccc(-c2cc(NC(=O)c3c(F)cccc3F)c(C(=O)O)s2)cc1 [ML317, 3-(2,6-difluorobenzamido)-5-(4-ethoxyphenyl)thiophene-2-carboxylic acid]
[1]; Luria-Bertani broth (primary assay media), plasma or biological fluid, Luria-Bertani broth, read-out: Assay Media Solubility
  solubility: 68 µg/mL and 169 µM
[1]; phosphate buffered saline (PBS), 23 °C, pH 7.4, aqueous buffer, 1x PBS, pH 7.4, room temperature, read-out: Aqueous Solubility
  solubility: 92.6 µg/mL and 230 µM
[2]
  Capsular material, Alcian blue stained gel: capsule was reduced in each strain
UPEC
  Emergence of spontaneous resistance in the laboratory: has not resulted in the emergence of spontaneous resistance
In vitro [3]
  CC50: 26 µM
[4]; 1 μM
  Plasma Protein Binding (% Bound): 99.68 % Bound
[4]; 10 μM
  Plasma Protein Binding (% Bound): 99.85 % Bound
Plasma stability, human
  Plasma Stability, % remaining at 3 hr: 95.3 % remaining
E. coli K1 strain UTI89; Escherichia coli, read-out: % Inhibition at 100 μM
  inhibition at 100 µM: 9.12%
E. coli K1 strain UTI89; Escherichia coli, read-out: K1 Capsule IC50, commercial sample, SID 103147605
  IC50: 4.5 ± 2.4 µM
E. coli K1 strain UTI89; Escherichia coli, read-out: K1 Capsule IC50, synthesized sample, SID 126497311
  IC50: 1.89 ± 1.56 µM
E. coli K1 strain UTI89; Escherichia coli, read-out: K1 phage IC50, first round of synthetic analogues, n = 3
  IC50: 1.89 µM
E. coli K1 strain UTI89; Escherichia coli, read-out: K1 phage IC50, purchased analogue series, n = 3
  IC50: 4.5 µM
E. coli K1 strain UTI89; first round of synthetic analogues
  Selectivity (Cyt./K1): 27.3
E. coli K1 strain UTI89; purchased analogue series
  Selectivity (Cyt./K1): 10.49
E. coli K1 strain UTI89
  Selectivity index (CC50/IC50): > 10
E. coli K1 strain UTI89; listed as CID 23602075
  Selectivity index (CC50/IC50): 10.49
In vitro [5]; commercial sample, SID 103147605
  selectivity ratio: 10.5
In vitro [5]; synthesized sample, SID 126497311
  selectivity ratio: 27.3
